Here are results for five molecules from US5077035A, “Radioiodinated benzovesamicol analogs for cholinergic nerve mapping” (priority 1990, dated 1991).

Where only a bound is given, the exact number is not on record here.

For data set [1], the system named is cholinergic neurons. As to the kind of experiment: Blocking of tracer accumulation by pretreatment with unlabeled (-)-vesamicol. The note with it: i.p.
The subject of data set [2] is vesicular sequestration of acetylcholine. The note with it: cited from earlier work.
A short description of another data set: in vivo. The note with it: mouse, iv.
Data set [3] deals with cholinergic neurons. As to the kind of experiment: Tissue distribution of radiotracer in mouse brain and tissues 4 h after intravenous injection (Example 9, Table II). Conditions: 4 h after i.v. injection.
Data set [4] deals with cholinergic neurons. As to the kind of experiment: Temporal pattern of distribution in mouse brain, 4 to 24 h (FIGS. 3 and 4). It counts as in vivo, female CD-1 mice.
Data set [5] deals with central cholinergic neurons. Nature of the data set: Brain distribution of 5-[125I]iodobenzovesamicol in mice, control and blocked (Example 10, Table III). It counts as in vivo, CD-1 mice. The procedure: (§1) Radioactive compound 13 as prepared above in Example 1 was dissolved in ethanol/0.005M sodium acetate (1/9) buffer (pH 4.5) at 1 mCi/ml and 10 μCi of the solution was administered intravenously to lightly etherized CD-1 mice. Animals were sacrificed at various time points after injection. Samples of the brain and other tissues were excised, weighed, and counted. As shown below in Table III, the ratios at 4 hours are consistent with the regional distribution pattern of central cholinergic neurons. […] | ^a N = 5 per group. Mice (CD1) weighed 19-21 g. Concentrations are | normalized to a 20 g mouse. […] | prior to i.v. tracer injection; all amimals were killed 4 h after tracer | injection. Controls received an equal volume of vehicle. In vivo

Assay in data set [6]: as above
In kind it is in vivo, CD-1 mice. The note with it: mouse, iv, 10 uCi, normalized to a 20 g mouse. The procedure: as §1

The nature of data set [7]: Physiological activity of the enantiomers.
In a further data set the test system is striatum. Nature of the data set: In vivo autoradiography in rat. The note with it: 90 min after i.v. injection. The procedure: injection. Controls received an equal volume of vehicle. In vivo
autoradiography in rat 90 min after i.v. injection of 5[^125 I]IBVM

[8] abbreviates: Blocked: (±)-vesamicol 0.53 mg/kg, ip, 10 min prior, 4 h after i.v. tracer.
Where [9] appears, read: Control, 4 h after i.v. injection.
The mark [10] stands for this setting: pretreatment with cold (±)-vesamicol 0.53 mg/kg, ip.
The mark [11] stands for this setting: ± S.D., normalized to a 25 g mouse.

For (-)-vesamicol [reference compound], the “Toxicity limitation of dose (in words)” value in the data set with cholinergic neurons [1] (doses larger than 605 μg/kg) is reported as “larger doses of (-)-vesamicol could not be injected due to toxicity limitations”. Also, the “Potency relative to (+)-vesamicol” value in data set [2] (enantioselectivity versus (+)-vesamicol) is on record as 25 times more potent.
`O[C@H]1Cc2cccc([125I])c2C[C@@H]1N1CCC(c2ccccc2)CC1` [[^125 I]-(+)-IBVM] returned a tissue uptake at 4 h in the data set “in vivo” (cerebellum) of 0.06 ± 0.01 %ID/g. In “in vivo” (cerebral cortex), this molecule returned a tissue uptake at 4 h of 0.12 ± 0.01 %ID/g. Also, the tissue uptake at 4 h in the data set “in vivo” (striatum) came to 0.26 ± 0.04 %ID/g. In addition, in the data set with cholinergic neurons [3], the “Concentration ratio [L. atrium]/[L. ventricle]” value amounted to 0.9, the “Concentration ratio [cortex]/[blood]” value amounted to 0.3, the “Concentration ratio [cortex]/[cerebellum]” value is listed as 2.0 and the “Concentration ratio [striatum]/[cerebellum]” value is 4.3. Moreover, in the data set on cholinergic neurons [3] (normalized to a 25 g mouse), the “% of dose injected, whole brain” value is given as 0.06 ± .01 % OF DOSE INJECTED. In addition, in the data set with cholinergic neurons [4] (mouse striatum), the “Initial striatal uptake of the two enantiomers (in words)” value is listed as “nearly identical initial striatal uptake” and the “Striatal washout (in words)” value was “rapidly washes out of the striatum”. Further, in the data set on cholinergic neurons [4] (mouse striatum, within 4 hours), the “Striatal level within 4 hours (in words)” value is on record as “nearly absent from this tissue”.
On to `O[C@@H]1Cc2cccc([125I])c2C[C@H]1N1CCC(c2ccccc2)CC1` [[^125 I]-(-)-IBVM], for which the Tissue ratio cortex/cerebellum in [5] (setting [8]) stood at 2.9; in data set [5] (setting [9]) it was 5.6. Further, the Tissue ratio striatum/cerebellum in data set [5] (setting [8]) stood at 8.2; in [5] (setting [9]), 15.8. The “Change of cerebellum accumulation of radioactivity” value in data set [5] (setting [10]) is listed as -8%. Also, the “Change of striatal and cortical accumulation of radioactivity” value in data set [5] (setting [10]) is listed as -53%. For the same molecule, the tissue uptake at 4 h came to 0.45 ± 0.1 %ID/g in data set [6] (blood, Blocked: (±)-vesamicol 0.53 mg/kg, ip, 10 min prior, 4 h after i.v. tracer, read-out: Concentration, blood); 1.01 ± 0.7 %ID/g in data set [6] (blood, Control, 4 h after i.v. injection, read-out: Concentration, blood); 0.24 ± 0.1 %ID/g in data set [6] (cerebellum, Blocked: (±)-vesamicol 0.53 mg/kg, ip, 10 min prior, 4 h after i.v. tracer, read-out: Concentration, cerebellum); 0.26 ± 0.06 %ID/g in [6] (cerebellum, Control, 4 h after i.v. injection, read-out: Concentration, cerebellum); 0.69 ± 0.13 %ID/g in data set [6] (cortex, Blocked: (±)-vesamicol 0.53 mg/kg, ip, 10 min prior, 4 h after i.v. tracer, read-out: Concentration, cortex); 1.46 ± 0.25 %ID/g in [6] (cortex, Control, 4 h after i.v. injection, read-out: Concentration, cortex). Besides, the tissue uptake at 4 h in [6] (striatum, Blocked: (±)-vesamicol 0.53 mg/kg, ip, 10 min prior, 4 h after i.v. tracer, read-out: Concentration, striatum) was found to be 1.97 ± 0.35 %ID/g; in data set [6] (striatum, Control, 4 h after i.v. injection, read-out: Concentration, striatum), 4.12 ± 0.65 %ID/g; in the data set “in vivo” (cerebellum) it was 0.23 ± 0.04 %ID/g; in the data set “in vivo” (striatum), 6.26 ± 0.46 %ID/g. Also, the “Physiological activity versus the other enantiomer (in words)” value in [7] is “more physiologically active than the positive”. In addition, the “Accumulation in striatum by autoradiography (in words)” value in the data set with striatum was “selective accumulation of tracer in the striatum”. Besides, in the data set on cholinergic neurons [3], the “Concentration ratio [L. atrium]/[L. ventricle]” value is listed as 5.5. Further, the “Concentration ratio [cortex]/[blood]” value with cholinergic neurons [3] was determined as 6.2. For the same molecule, the “Concentration ratio [cortex]/[cerebellum]” value in the data set with cholinergic neurons [3] is on record as 11.1. In addition, the “Concentration ratio [striatum]/[cerebellum]” value in the data set with cholinergic neurons [3] was found to be 27.2. In the data set on cholinergic neurons [3] (normalized to a 25 g mouse), the “% of dose injected, whole brain” value is given as 1.03 ± .07 % OF DOSE INJECTED. For the same molecule, the “Concentration, cerebral cortex” value in the data set with cholinergic neurons [3] (setting [11]) is recorded as 2.56 ± .21 % DOSE/G. In addition, the “Lowering of 4 hour striatal and cortical accumulation” value in the data set on cholinergic neurons [1] (pretreatment with unlabeled (-)-vesamicol hydrochloride 605 μg/kg, 10 min prior to tracer) came to 65%. Moreover, in the data set with cholinergic neurons [4] (4-24 h, 4 h activity of (+)-enantiomer as estimate of non-neuronal binding), the “Neuronal specificity in cortex and striatum” value is listed as greater than 95%. Further, in the data set on cholinergic neurons [4] (4 to 24 h, cerebellar concentration as approximation of non-neuronal binding), the “Specific neuronal binding in cortex and striatum” value is greater than 95%. Moreover, in the data set on cholinergic neurons [4] (4 to 24 hours following injection), the “Radioactivity in cerebral cortex and striatum over time (in words)” value is “remains at a high and fairly constant level”. Besides, the “Initial striatal uptake of the two enantiomers (in words)” value in the data set on cholinergic neurons [4] (mouse striatum) is “nearly identical initial striatal uptake”.
Take `O[C@@H]1Cc2cccc([125I])c2C[C@H]1N1CCC(c2ccccc2)CC1` (relative stereo) [[^125 I]-(±)-IBVM, (±)-trans-2-hydroxy-5-iodo-3-(4-phenylpiperidino)tetralin]: in the data set with cholinergic neurons [3], the “Concentration ratio [L. atrium]/[L. ventricle]” value came to 4.7, the “Concentration ratio [cortex]/[blood]” value is 2.3, the “Concentration ratio [cortex]/[cerebellum]” value is listed as 5.9 and the “Concentration ratio [striatum]/[cerebellum]” value was found to be 16.5. For the same molecule, the “% of dose injected, whole brain” value in the data set on cholinergic neurons [3] (normalized to a 25 g mouse) is 0.56 ± .07 % OF DOSE INJECTED. Besides, in the data set on cholinergic neurons [3] (setting [11]), the “Concentration, cerebellum” value is given as 0.20 ± .04 % DOSE/G; the “Concentration, cerebral cortex” value is given as 1.17 ± .20 % DOSE/G; the “Concentration, striatum” value is listed as 3.29 ± .52 % DOSE/G.
Consider `O[C@@H]1CCCC[C@H]1N1CCC(c2ccccc2)CC1` (relative stereo) [Vesamicol, trans-2-(4-phenylpiperidino)-cyclohexanol], for which the “Inhibition of vesicular sequestration of acetylcholine (in words)” value in data set [2] is recorded as “potent inhibitor of the vesicular sequestration of acetylcholine”.
